Holding throughout (test): competitive isoTOP-ABPP
Holding throughout (type): binding

Assay [1] addresses T1, AKR1C3 Aldo-keto reductase family 1 member C3 (Homo sapiens, UniProt P42330).
T1 construct: isoTOP-ABPP experiments performed in cell lysates (in vitro); endogenous in cells; host or cells: soluble proteome of human cancer cell lines (MDA-MB-231; Ramos and Jurkat also prepared)
T1 sequence (P42330 1-323): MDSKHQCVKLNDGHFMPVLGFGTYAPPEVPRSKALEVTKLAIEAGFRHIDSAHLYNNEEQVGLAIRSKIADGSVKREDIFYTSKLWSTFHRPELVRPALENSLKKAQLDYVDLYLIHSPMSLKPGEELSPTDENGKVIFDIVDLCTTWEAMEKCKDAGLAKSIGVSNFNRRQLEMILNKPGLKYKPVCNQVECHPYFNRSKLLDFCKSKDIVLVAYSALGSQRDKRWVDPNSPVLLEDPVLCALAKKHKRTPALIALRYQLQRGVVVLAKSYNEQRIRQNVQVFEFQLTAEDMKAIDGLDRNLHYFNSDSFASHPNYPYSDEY
The settings on record: for isoTOP-ABPP ratio (R) at liganded lysine P42330_K270: 50 uM, in vitro, sol, 231; for isoTOP-ABPP ratio, lysine P42330_K270: possible other lysine P52895_K270, P17516_K270, Q04828_K270. Put shortly:
(§1)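 Fragments at 50 μM (activated esters) or 100 μM (guanidinylating agents) were incubated with 0.5 ml lysate before probe labeling. After 0.1 mM STP-alkyne for 1 h, samples were clicked to isotopically distinct TEV tags, and R taken as DMSO-over-compound MS1 peak-area ratio.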

Assay [2] has as its target T2, TSTA3 GDP-L-fucose synthase (Homo sapiens, UniProt Q13630).
T2 construct: isoTOP-ABPP experiments performed in cell lysates (in vitro); endogenous in cells; host or cells: soluble proteome of human cancer cell lines (MDA-MB-231, Ramos, Jurkat)
The settings on record: for isoTOP-ABPP ratio (R) at liganded lysine Q13630_K108: 50 uM, in vitro, sol, 231; for isoTOP-ABPP ratio, lysine Q13630_K108: 50 uM_231_sol_in vitro. An outline of the steps:
as §1

Assay [3] concerns the target T3, RPS10 40S ribosomal protein S10 (Homo sapiens, UniProt P46783).
T3 construct: isoTOP-ABPP experiments performed in cell lysates (in vitro); endogenous in cells; host or cells: soluble proteome of human cancer cell lines (MDA-MB-231; Ramos and Jurkat also prepared)
An outline of the steps:
as §1

For assay [4], the target named is T4, ARL6IP1 ADP-ribosylation factor-like protein 6-interacting (Homo sapiens, UniProt Q15041).
T4 construct: isoTOP-ABPP experiments performed in cell lysates (in vitro); endogenous in cells; host or cells: soluble proteome of human cancer cell lines (MDA-MB-231; Ramos and Jurkat also prepared)
The settings on record: for isoTOP-ABPP ratio (R) at liganded lysine Q15041_K188: 50 uM, in vitro, sol, 231; for isoTOP-ABPP ratio, lysine Q15041_K188: 50 uM_231_sol_in vitro. An outline of the steps: as §1

Assay [5] concerns the target T5, NT5DC1 5-nucleotidase domain-containing protein 1 (Homo sapiens, UniProt Q5TFE4).
T5 construct: isoTOP-ABPP experiments performed in cell lysates (in vitro); endogenous in cells; host or cells: soluble proteome of human cancer cell lines (MDA-MB-231; Ramos and Jurkat also prepared)
T5 sequence (Q5TFE4 1-455): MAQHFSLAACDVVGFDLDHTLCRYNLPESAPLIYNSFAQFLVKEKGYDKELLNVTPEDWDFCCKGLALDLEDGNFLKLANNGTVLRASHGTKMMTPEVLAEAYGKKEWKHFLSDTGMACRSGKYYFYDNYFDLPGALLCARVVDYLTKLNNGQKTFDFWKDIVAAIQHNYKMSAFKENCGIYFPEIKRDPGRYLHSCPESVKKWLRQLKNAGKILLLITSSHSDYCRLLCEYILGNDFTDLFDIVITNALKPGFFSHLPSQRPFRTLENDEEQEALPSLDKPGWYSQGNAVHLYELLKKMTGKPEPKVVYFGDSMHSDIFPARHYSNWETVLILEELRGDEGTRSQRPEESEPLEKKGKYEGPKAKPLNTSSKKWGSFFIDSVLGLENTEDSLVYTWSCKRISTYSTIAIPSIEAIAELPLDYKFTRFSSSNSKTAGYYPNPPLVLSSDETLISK
An outline of the steps:
as §1

T4 sequence (Q15041 whole entry): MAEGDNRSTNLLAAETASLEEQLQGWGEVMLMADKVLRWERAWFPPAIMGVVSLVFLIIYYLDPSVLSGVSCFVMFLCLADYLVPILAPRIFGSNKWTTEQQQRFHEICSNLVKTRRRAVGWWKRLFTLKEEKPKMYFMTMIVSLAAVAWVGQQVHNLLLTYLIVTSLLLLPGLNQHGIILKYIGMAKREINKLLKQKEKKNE
T2 sequence (Q13630 whole entry): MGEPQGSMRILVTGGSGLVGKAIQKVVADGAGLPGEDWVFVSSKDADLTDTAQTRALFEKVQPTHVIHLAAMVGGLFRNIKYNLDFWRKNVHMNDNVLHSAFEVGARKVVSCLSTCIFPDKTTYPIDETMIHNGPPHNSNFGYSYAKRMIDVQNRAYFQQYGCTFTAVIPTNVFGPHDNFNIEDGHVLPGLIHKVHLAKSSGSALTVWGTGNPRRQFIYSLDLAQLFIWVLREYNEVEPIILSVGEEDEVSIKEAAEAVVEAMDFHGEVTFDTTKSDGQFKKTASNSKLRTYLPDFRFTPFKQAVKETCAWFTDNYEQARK

For the compound `O=C(CC12CC3CC(CC(C3)C1)C2)Oc1ccc([N+](=O)[O-])cc1[N+](=O)[O-]` [fragment 38, 2,4-Dinitrophenyl 2-(adamantan-1-yl)acetate], in assay [1], the “isoTOP-ABPP ratio (R) at liganded lysine P42330_K270” value worked out at 0.9. The “isoTOP-ABPP ratio (R) at liganded lysine Q13630_K108” value in assay [2] stood at 0.9. For the same compound, the “isoTOP-ABPP ratio (R) at liganded lysine P46783_K139” value in assay [3] (50 uM, in vitro, sol, 231) is on record as 1.0.
Regarding `O=C(Oc1ccc([N+](=O)[O-])cc1[N+](=O)[O-])c1ccc(Oc2ccccc2)cc1` [fragment 39, 2,4-Dinitrophenyl 4-phenoxybenzoate], the “isoTOP-ABPP ratio (R) at liganded lysine Q15041_K188” value in assay [4] is recorded as 1.7. Moreover, the “isoTOP-ABPP ratio (R) at liganded lysine P42330_K270” value in assay [1] was 0.8.
Regarding `O=C(Oc1ccc([N+](=O)[O-])cc1[N+](=O)[O-])c1ccccc1Nc1cccc(C(F)(F)F)c1` [fragment 40, 2,4-Dinitrophenyl 2-((3-(trifluoromethyl)phenyl)amino)benzoate], the “isoTOP-ABPP ratio (R) at liganded lysine P42330_K270” value in assay [1] is 2.2. Also, the “isoTOP-ABPP ratio (R) at liganded lysine Q13630_K108” value in assay [2] is 0.9.
Take `CC(C)(C)OC(=O)NCCCC(=O)Oc1ccc([N+](=O)[O-])cc1[N+](=O)[O-]` [fragment 41, 2,4-Dinitrophenyl 4-((tert-butoxycarbonyl)amino)butanoate]: the “isoTOP-ABPP ratio (R) at liganded lysine Q15041_K188” value in assay [4] stood at 1.3. Further, in assay [1], the “isoTOP-ABPP ratio (R) at liganded lysine P42330_K270” value stood at 0.7. In assay [2], the “isoTOP-ABPP ratio (R) at liganded lysine Q13630_K108” value turned out to be 1.3.
Regarding `CC(=O)Oc1ccc([N+](=O)[O-])cc1[N+](=O)[O-]` [fragment 43, 2,4-Dinitrophenyl acetate], in assay [4], the “isoTOP-ABPP ratio (R) at liganded lysine Q15041_K188” value is 1.4.
Regarding `N#Cc1ccc(C(=O)Oc2ccc([N+](=O)[O-])cc2[N+](=O)[O-])cc1` [fragment 44, 2,4-Dinitrophenyl 4-cyanobenzoate], in assay [4], the “isoTOP-ABPP ratio, lysine Q15041_K188” value came out at 1.1. The “isoTOP-ABPP ratio, lysine P42330_K270” value in assay [1] (50 uM_231_sol_in vitro) came out at 0.5. Further, the “isoTOP-ABPP ratio, lysine P46783_K139” value in assay [3] (50 uM_231_sol_in vitro) is 0.6.
Turning to `O=C(CCc1ccc2c(c1)OCO2)Oc1ccc([N+](=O)[O-])cc1[N+](=O)[O-]` [fragment 45, 2,4-Dinitrophenyl 3-(benzo[d][1,3]dioxol-5-yl)propanoate], the “isoTOP-ABPP ratio, lysine Q15041_K188” value in assay [4] was 2.2. In addition, the “isoTOP-ABPP ratio, lysine P42330_K270” value in assay [1] (50 uM_231_sol_in vitro) came out at 0.8. The “isoTOP-ABPP ratio, lysine Q13630_K108” value in assay [2] is on record as 20.0. The “isoTOP-ABPP ratio, lysine Q5TFE4_K123” value in assay [5] (50 uM_231_sol_in vitro) came to 2.1.
In the case of `O=C(ON1C(=O)CCC1=O)c1cc(C(F)(F)F)cc(C(F)(F)F)c1` [fragment 46, 3,5-Bis(trifluoromethyl)benzoic acid NHS ester], in assay [4], the “isoTOP-ABPP ratio, lysine Q15041_K188” value turned out to be 1.2. Besides, the “isoTOP-ABPP ratio, lysine Q13630_K108” value in assay [2] is 2.7. Also, the “isoTOP-ABPP ratio, lysine Q5TFE4_K123” value in assay [5] (50 uM_231_sol_in vitro) is 20.0.
As for `O=C(Oc1c(F)c(F)c(C(F)(F)F)c(F)c1F)c1cc(C(F)(F)F)cc(C(F)(F)F)c1` [fragment 47, 2,3,5,6-Tetrafluoro-4-(trifluoromethyl)phenyl 3,5-bis(trifluoromethyl)benzoate], in assay [4], the “isoTOP-ABPP ratio, lysine Q15041_K188” value stood at 3.5. The “isoTOP-ABPP ratio, lysine P42330_K270” value in assay [1] (50 uM_231_sol_in vitro) turned out to be 2.5.
Regarding `O=C(Oc1c(F)c(F)cc(F)c1F)c1cc(C(F)(F)F)cc(C(F)(F)F)c1` [fragment 48, 2,3,5,6-Tetrafluorophenyl 3,5-bis(trifluoromethyl)benzoate], in assay [4], the “isoTOP-ABPP ratio, lysine Q15041_K188” value was determined as 3.5. In assay [3] (50 uM_231_sol_in vitro), the “isoTOP-ABPP ratio, lysine P46783_K139” value was 0.8.
As for `COC(=O)NC(=NC(=O)OCC1c2ccccc2-c2ccccc21)n1cccn1` [fragment 49, N-Methoxycarbonyl-N′-9-fluorenylmethoxycarbonyl-pyrazole-1-carboxamidine], the “isoTOP-ABPP ratio, lysine P42330_K270” value in assay [1] (100 uM_231_sol_in vitro) was determined as 0.8. For the same compound, the “isoTOP-ABPP ratio, lysine Q5TFE4_K123” value in assay [5] (100 uM_231_sol_in vitro) was 1.3. For the same compound, in assay [3] (100 uM_231_sol_in vitro), the “isoTOP-ABPP ratio, lysine P46783_K139” value is 20.0.
Regarding `NC(=O)c1cc(C(F)(F)F)cc(C(F)(F)F)c1` [fragment 51, reference compound], in assay [1] (50 uM_231_sol_in vitro), the “isoTOP-ABPP ratio, lysine P42330_K270” value stood at 0.8.
